Experimental data published in patent US20240190838A1, “LZK-TARGETING DEGRADERS AND METHODS OF USE” (The U.S.A., as represented by the Secretary, Department of …, priority 2020, published 2024).
Where a SMILES comes first, the peptide text is derived from it. The star is where a group is joined. Cbz = O=C(OCc1ccccc1)*

System: c-MYC
Test: c-MYC levels in CAL33 and BICR56 cells depleted of LZK
Type: cell-based
Conditions: 10 μM for six hours; LZK depleted 48 hours
Description: CAL33 and BICR56 inducible knockdown cells were generated by SIRION Biotech. MSK921 was generated in-house using lentiviral particles provided by SIRION (generated by transfection of 293TN cells with expression vectors and lentiviral packaging plasmids). Transduction occurred at MOI 5 with 8 μg/mL polybrene. After 24 hours, medium was replaced with fresh medium containing puromycin (Invitrogen) to select for cells that had been effectively transduced. shRNA sequences were […] (sh1; SEQ ID NO: 19) and […] (sh2; SEQ ID NO: 20). The lentiviral expression plasmid was pCLVi(3G)-MCS-Puro, which expresses a doxycycline-responsive transactivator and the shRNA from the same vector. Expression of the transactivator is constitutive, while shRNA expression depends on a doxycycline-inducible promoter. […]
Generally, cells were plated in six-well or 35-mm plates for 24 hours, after which doxycycline was added or treatment with specific inhibitor was administered using 50 FBS media for 48 hours. […] Protein concentrations were determined from the cell lysate by using 660 nm Protein Assay Reagent (Pierce). […] The membranes were incubated with the specific antibodies overnight in […] at 4° C. followed by a 1 hour incubation with the appropriate horseradish peroxidase-conjugated secondary antibodies and signal was detected by chemiluminescence (Thermo Fisher).

Q: How did the “c-MYC levels in LZK-depleted cells” value turn out when `CC(C)C[C@@H](C=O)NC(=O)[C@H](CC(C)C)NC(=O)[C@H](CC(C)C)NC(=O)OCc1ccccc1` [MG132] (Cbz-Leu-Leu-Leu-aldehyde) was run?
A: rescued decreases in the c-MYC levels
